Reference: patent US9980986B2, “Methods of producing pancreatic hormones” (ViaCyte, Inc., priority 2006, dated 2018)

B1: Wnt3a: wingless-type MMTV integration site family member 3A (protein, UniProt P56704 19-352, looked up)
Protein Wnt-3a: SYPIWWSLAVGPQYSSLGSQPILCASIPGLVPKQLRFCRNYVEIMPSVAEGIKIGIQECQHQFRGRRWNCTTVHDSLAIFGPVLDKATRESAFVHAIASAGVAFAVTRSCAEGTAAICGCSSRHQGSPGKGWKWGGCSEDIEFGGMVSREFADARENRPDARSAMNRHNNEAGRQAIASHMHLKCKCHGLSGSCEVKTCWWSQPDFRAIGDFLKDKYDSASEMVVEKHRESRGWVETLRPRYTYFKVPTERDLVYYEASPNFCEPNPETGSFGTRDRTCNVSSHGIDGCDLLCCGRGHNARAERRREKCRCVFHWCCYVSCQECTRVYDVHTCK

Tests used:
[1] = test system: activin receptor-like (ALK) receptor; experiment: TGF-beta receptor family inhibitor added to cell cultures at stage 2 of differentiation; format: cell-based, human; details: about 2.5, 5 and 10 μM added to the cell cultures at stage 2
Text: The differentiation culture conditions were substantially similar to that described in d'Amour et al. 2006. d'Amour et al. 2006 describe a 5 step differentiation protocol: stage 1 (definitive endoderm; d 1-d 4), stage 2 (primitive gut tube or foregut endoderm; d 5 to d 8), stage 3 (posterior foregut or Pdx1 endoderm; d 9 to d 12), stage 4 (pancreatic endoderm, or pancreatic epithelium and endocrine precursor; d 13 to d 15) and stage 5 (hormone expressing endocrine cell, d 16 or more). As in d'Amour et al. 2006, the undifferentiated cells were cultured for one day (d 1) in RPMI containing 100 ng/ml Activin A (R&D Systems) and 25 ng/ml recombinant human WNT3a (R&D Systems), two days (d 2 and d 3) in RPMI medium containing 0.2% fetal bovine serum (FBS, Specialty Media) and 100 ng/ml Activin A. The embodiments described herein were slightly modified beginning at day 3 (d 3). The cells from day 3 (definitive endoderm) were cultured for three days (d 4 to d 6; foregut endoderm) in RPMI medium containing 2% FBS, 50 ng/ml recombinant human KGF/FGF7 (R&D Systems), and 0.25 μM KAAD-cyclopamine (Toronto Research Chemicals). Activin is removed from cells at this stage. […]

[2] = test system: Human embryonic stem cell lines; experiment: hESC differentiation by 6-step 15-day protocol with or without Wnt3a in step 1, real-time quantitative PCR; format: cell-based; details: Wnt3a 25 ng/mL added during the first step
Protocol: Human embryonic stem cell lines were also differentiated for 15 days via a 6-step protocol to achieve islet hormone-expressing cells. The first step comprised 3 days differentiation with either; i) activin A (100 ng/ml) or ii) activin A (100 ng/ml) and Wnt3a (25 ng/mL) to robustly produce DE (D'Amour, K., et al., Nature Biotechnology 23, 1534-1541, (2005)). Step 2 comprised 3 days differentiation in RPMI with 2% FBS containing FGF10 (50 ng/mL) and KAAD-cyclopamine (0.5 μM). Step 3 comprised 2 days differentiation in CMRL with B27 supplement (1:100) containing FGF10 (50 ng/mL), KAAD-cyclopamine (0.5 μM) and retinoic acid (2 μM). Step 4 comprised 2 days differentiation in CMRL with B27 supplement (1:100) containing retinoic acid (2 μM) and DAPT (1 μM). Step 5 comprised 2 days differentiation in CMRL with B27 supplement (1:100) containing DAPT (1 μM) and exendin 4 (40 ng/mL). Step 6 comprised 3 days differentiation in CMRL with B27 supplement (1:100) containing exendin 4 (40 ng/mL). Duplicate samples were taken from each plate at multiple time points and gene expression was analyzed by real-time quantitative PCR.

Molecule | Effect on cell differentiation [1] | Effect on endocrine cell differentiation [2]
NC(=O)c1ccc(-c2nc(-c3ccc4c(c3)OCO4)c(-c3ccccn3)[nH]2)cc1 [SB-431542] | potentiated cell differentiation | –
B1 | – | marked enhancement of endocrine cell differentiation
